Data taken from patent US20260240163A1, “HERBICIDAL COMBINATIONS AND A METHOD FOR CONTROLLING UNDESIRED VEGETATION” (UPL Mauritius Limited, priority 2022, published 2026).

Test system: Euphorbia heterophylla
Assay: Post-emergence herbicidal efficacy trials; expected efficacy by Colby method
Assay type: in vivo
Details: for Observed efficacy (%) of L-glufosinate ammonium (150 g a.i./ha): Table 11
Description: Methodology: Trials were conducted to evaluate the efficacy of the combinations comprising L-glufosinate ammonium and the additional herbicides on Euphorbia genus weeds.
The soil used was sandy clay loam-sand: 68.0%; silt: 8.0%; clay: 24.0%.
All treatments were in 4 replications per treatment with a spray volume of about 150 L/ha.
Efficacy Evaluation: The expected efficacy of the combination comprising L-glufosinate ammonium and additional herbicides was calculated using the well-established Colby method.
In the Colby method, the expected (or predicted) response of a combination of herbicides is calculated by taking the product of the observed response for each individual component of the combination when applied alone, divided by 100, and subtracting this value from the sum of the observed response for each component when applied alone. An unexpected enhancement in efficacy of the combination is then determined by comparing the observed response of the combination to the expected (or predicted) response as calculated from the observed response of each individual component alone. If the observed response of the combination is greater than the expected (or predicted) response, or stated conversely, if the difference between the observed and expected response is greater than zero, then the combination is said to be synergistic or unexpectedly effective (Colby, S. R., Weeds, 1967 (15), p. 20-22). The Colby method requires only a single dose of each herbicide applied alone and the mixture of both doses. The formula used to calculate the expected efficacy (EE) which was compared with the observed efficacy (OE) to determine the efficacy of the present disclosure is explained hereinbelow:
The expected efficacy for a combination of two active ingredients is as follows:
wherein, • A=Observed efficacy of active ingredient A at the same concentration as used in the mixture. • B=Observed efficacy of the active ingredient B at the same concentration as used in the mixture.

## C[N+](C)(C)CCO.O=C([O-])COc1ccc(Cl)cc1Cl [2,4-D choline, 2,4-dichlorophenoxyacetic acid (2,4-D) choline]
14 DAA
  Observed efficacy (%) of 2,4-D choline (228 g a.i./ha): 30%
21 DAA
  Observed efficacy (%) of 2,4-D choline (228 g a.i./ha): 30%

## COc1c(Cl)ccc(Cl)c1C(=O)O [Dicamba]
7 DAA
  Observed efficacy (%) of Dicamba (228 g a.i./ha): 45%
14 DAA
  Observed efficacy (%) of Dicamba (228 g a.i./ha): 40%

## COc1c(Cl)ccc(-c2nc(C(=O)OCc3ccccc3)c(Cl)c(N)c2F)c1F [Florpyrauxifen-benzyl]
7 DAA
  Observed efficacy (%) of Florpyrauxifen-benzyl (15 g a.i./ha): 65%
14 DAA
  Observed efficacy (%) of Florpyrauxifen-benzyl (15 g a.i./ha): 90%

## CP(=O)(O)CC[C@H](N)C(=O)O.N [L-glufosinate ammonium]
7 DAA, Table 6
  Observed efficacy (%) of L-glufosinate ammonium (Glufosinate-P-ammonium) (150 g a.i./ha): 95%
7 DAA, Table 7
  Observed efficacy (%) of L-glufosinate ammonium (Glufosinate-P-ammonium) (150 g a.i./ha): 95%
7 DAA, Table 8
  Observed efficacy (%) of L-glufosinate ammonium (Glufosinate-P-ammonium) (150 g a.i./ha): 95%
7 DAA, Table 9
  Observed efficacy (%) of L-glufosinate ammonium (Glufosinate-P-ammonium) (150 g a.i./ha): 95%
7 DAA, Table 10
  Observed efficacy (%) of L-glufosinate ammonium (Glufosinate-P-ammonium) (150 g a.i./ha): 95%
14 DAA, Table 6
  Observed efficacy (%) of L-glufosinate ammonium (Glufosinate-P-ammonium) (150 g a.i./ha): 98%
14 DAA, Table 7
  Observed efficacy (%) of L-glufosinate ammonium (Glufosinate-P-ammonium) (150 g a.i./ha): 98%
14 DAA, Table 9
  Observed efficacy (%) of L-glufosinate ammonium (Glufosinate-P-ammonium) (150 g a.i./ha): 93.5%
14 DAA, Table 10
  Observed efficacy (%) of L-glufosinate ammonium (Glufosinate-P-ammonium) (150 g a.i./ha): 93.5%
14 DAA
  Observed efficacy (%) of L-glufosinate ammonium (150 g a.i./ha): 98%
21 DAA, Table 9
  Observed efficacy (%) of L-glufosinate ammonium (Glufosinate-P-ammonium) (150 g a.i./ha): 88.8%
21 DAA, Table 10
  Observed efficacy (%) of L-glufosinate ammonium (Glufosinate-P-ammonium) (150 g a.i./ha): 88.8%
21 DAA
  Observed efficacy (%) of L-glufosinate ammonium (150 g a.i./ha): 98%
28 DAA, Table 9
  Observed efficacy (%) of L-glufosinate ammonium (Glufosinate-P-ammonium) (150 g a.i./ha): 93.1%
28 DAA, Table 10
  Observed efficacy (%) of L-glufosinate ammonium (Glufosinate-P-ammonium) (150 g a.i./ha): 93.1%

## CSc1nnc(C(C)(C)C)c(=O)n1N [Metribuzin]
7 DAA
  Observed efficacy (%) of Metribuzin (360 g a.i./ha): 41.9%
14 DAA
  Observed efficacy (%) of Metribuzin (360 g a.i./ha): 38.1%
21 DAA
  Observed efficacy (%) of Metribuzin (360 g a.i./ha): 29.4%
28 DAA
  Observed efficacy (%) of Metribuzin (360 g a.i./ha): 12.5%

## CCN(CC)C(=O)C(C)Oc1cccc2ccccc12 (stereo not drawn) [Napropamide]
7 DAA
  Observed efficacy (%) of Napropamide (675 g a.i./ha): 20%
14 DAA
  Observed efficacy (%) of Napropamide (675 g a.i./ha): 10%
21 DAA
  Observed efficacy (%) of Napropamide (675 g a.i./ha): 0%
28 DAA
  Observed efficacy (%) of Napropamide (675 g a.i./ha): 0%

## CCOc1cc(Oc2ccc(C(F)(F)F)cc2Cl)ccc1[N+](=O)[O-] [Oxyfluorfen]
430 g a.i./ha, 7 DAA
  Observed efficacy (%) of Oxyfluorfen (430 g a.i./ha): 75%
